# From US9126938B2, “Phosphatidylcholine transfer protein inhibitors” (The Brigham and Women's Hospital, Inc., priority 2009, dated 2015)
# How the values were obtained:
# [1] = target: T1, PC-TP (Homo sapiens, UniProt Q9UKL6); assay: PC-TP inhibition assay (Wagle et al. method); type: biochemical; details: for IC50: Table 1, concentration value; for Activity (PC-TP), result in words: compound fluorescence in the fluorescence-based assay
# T1 sequence (Q9UKL6 1-214): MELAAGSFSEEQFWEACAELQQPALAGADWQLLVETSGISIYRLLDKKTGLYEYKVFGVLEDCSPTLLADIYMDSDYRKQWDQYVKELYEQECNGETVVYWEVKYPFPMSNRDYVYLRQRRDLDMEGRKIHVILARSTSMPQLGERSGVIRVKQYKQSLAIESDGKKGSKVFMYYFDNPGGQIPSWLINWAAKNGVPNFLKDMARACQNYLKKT
# Protocol: (§1) The compounds in Table 1 and 2 were assayed for their ability to inhibit PC-TP and StarD10, respectively, using a known assay method (see Wagle et al., 2008. Anal. Biochem. 383:85-92, which is incorporated herein by reference in its entirety). Further, certain compounds were also tested for their ability to inhibit StarD7 (see Table 2).
# [2] = target: T2, StarD10 (Homo sapiens, UniProt Q9Y365); assay: StarD10 inhibition assay; type: biochemical
# T2 sequence (Q9Y365 1-291): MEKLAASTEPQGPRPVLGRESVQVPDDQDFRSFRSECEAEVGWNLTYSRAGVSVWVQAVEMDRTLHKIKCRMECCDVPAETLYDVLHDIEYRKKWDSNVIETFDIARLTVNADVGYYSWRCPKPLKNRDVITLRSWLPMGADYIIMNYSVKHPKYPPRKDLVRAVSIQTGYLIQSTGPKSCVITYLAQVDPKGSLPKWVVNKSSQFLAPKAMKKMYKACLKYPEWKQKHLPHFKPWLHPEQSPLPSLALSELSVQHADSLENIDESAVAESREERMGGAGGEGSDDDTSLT
# Protocol: as §1
# [3] = tested on: insulin signaling pathway in cultured primary human hepatocytes; assay: Activation of insulin signaling pathway in primary human hepatocytes (immunoblot); type: cell-based; details: serum starved hepatocytes, 60 minute exposure, doses of 0.05 and 0.10 μM, no insulin
# Protocol: Cultured primary human hepatocytes (commercially obtained) were serum starved overnight followed by 60 minute exposure to A) Compound 4 or B) Compound 16 at the indicated concentrations. Inhibitors were dissolved in DMSO. Negative controls included Control (no additions) and DMSO alone. The positive control included DMSO plus insulin (50 nM) for 30 minutes. Cells were harvested and lysates were subjected to immunoblot analyses using antibodies, as indicated.
# [4] = target: T3, StarD7 (Homo sapiens, UniProt Q9NQZ5); assay: StarD7 inhibition assay; type: biochemical
# T3 sequence (Q9NQZ5 78-370): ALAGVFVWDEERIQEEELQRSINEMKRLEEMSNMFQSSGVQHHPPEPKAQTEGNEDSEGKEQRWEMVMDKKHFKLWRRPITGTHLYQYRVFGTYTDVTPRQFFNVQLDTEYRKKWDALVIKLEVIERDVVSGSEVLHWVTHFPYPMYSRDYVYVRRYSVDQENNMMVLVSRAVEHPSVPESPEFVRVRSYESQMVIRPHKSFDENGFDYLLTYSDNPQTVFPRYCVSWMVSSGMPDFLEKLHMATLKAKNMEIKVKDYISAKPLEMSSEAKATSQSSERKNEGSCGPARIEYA
# Protocol: as §1
IC50 [1] [µM],Structure (SMILES),also measured
26,"Cc1cc(C)nc(NS(=O)(=O)c2ccc(NC(=O)NC(=O)c3ccc(Cl)cc3)cc2)n1 [Compound 6, 4-chloro-N-(4-(N-(4,6-dimethylpyrimidin-2-yl)sulfamoyl)phenylcarbamoyl) benzamide]",–
12,"O=C(Nc1cc(Cl)cc(Cl)c1)C(Sc1cccc[n+]1[O-])c1cccc2ccccc12 (stereo not drawn) [Compound 23, 2-(2-(3,5-dichlorophenylamino)-1-(naphthalen-1-yl)-2-oxoethylthio)pyridine 1-oxide]",–
5,"Cc1cc(C)nc(NS(=O)(=O)c2ccc(NC(=O)NC(=O)c3ccc(Cl)cc3Cl)cc2)c1 [Compound 7, 2,4-dichloro-N-(4-(N-(4,6-dimethylpyridin-2-yl)sulfamoyl)phenylcarbamoyl) benzamide]",–
4,"COc1ccccc1NC(=O)C(Sc1cccc[n+]1[O-])c1ccccc1 (stereo not drawn) [Compound 34, 2-(2-(2-methoxyphenylamino)-2-oxo-1-phenylethylthio)pyridine 1-oxide]",IC50 [2]: 15 µM
15,"O=C(Nc1ccccc1Cl)C(Sc1cccc[n+]1[O-])c1ccccc1 (stereo not drawn) [Compound 33, 2-(2-(2-chlorophenylamino)-2-oxo-1-phenylethylthio)pyridine 1-oxide]",IC50 [2]: 23 µM
11,"O=C(Nc1cccc(C(F)(F)F)c1)C(Sc1cccc[n+]1[O-])c1ccccc1 (stereo not drawn) [Compound 19, 2-(2-oxo-1-phenyl-2-(3-(trifluoromethyl)phenylamino)ethylthio)pyridine 1-oxide]",–
2.3,"Cc1cc(NS(=O)(=O)c2ccc(NC(=O)NC(=O)c3ccc(Cl)cc3Cl)cc2)nc(C)n1 [Compound 13, 2,4-dichloro-N-(4-(N-(2,6-dimethylpyrimidin-4-yl)sulfamoyl)phenylcarbamoyl) benzamide]",IC50 [2]: 20 µM
> 50,"Cc1cc(C)nc(NS(=O)(=O)c2ccc(N(C)C(=O)NC(=O)c3ccc(Cl)cc3Cl)cc2)n1 [Compound 11, 2,4-dichloro-N-((4-(N-(4,6-dimethylpyrimidin-2-yl)sulfamoyl)phenyl)(methyl)carbamoyl)benzamide]",–
20,Cc1cc(C)cc(NS(=O)(=O)c2ccc(NC(=O)NC(=O)c3ccc(Cl)cc3Cl)cc2)c1 [Compound 14],–
> 100,"CCOc1ccccc1NC(=O)C(Sc1cccc[n+]1[O-])c1ccccc1 (stereo not drawn) [Compound 32, 2-(2-(2-ethoxyphenylamino)-2-oxo-1-phenylethylthio)pyridine 1-oxide]",–
~50,"O=C(Nc1ccc(Cl)cc1C(F)(F)F)C(Sc1cccc[n+]1[O-])c1ccccc1 (stereo not drawn) [Compound 28, 2-(2-(4-chloro-2-(trifluoromethyl)phenylamino)-2-oxo-1-phenylethylthio)pyridine 1-oxide]",–
8,"Cc1cc(C)nc(NS(=O)(=O)c2ccc(NC(=O)N(C)C(=O)c3ccc(Cl)cc3Cl)cc2)n1 [Compound 15, 2,4-dichloro-N-(4-(N-(4,6-dimethylpyrimidin-2-yl)sulfamoyl)phenylcarbamoyl)-N-methylbenzamide]",IC50 [2]: 17 µM
–,"CCN(CC)CCN(c1nc(C)cc(C)n1)S(=O)(=O)c1ccc(NC(=O)NC(=O)c2ccc(Cl)cc2Cl)cc1 [Compound 30, 2,4-dichloro-N-((4-(N-(2-(diethylamino)ethyl)-N-(4,6-dimethylpyrimidin-2-yl)sulfamoyl)phenyl)carbamoyl)benzamide]","Activity (PC-TP), result in words [1]: High fluorescense"
–,"O=C(Nc1cc(Cl)cc(Cl)c1)C(Sc1cc2ccccc2c[n+]1[O-])c1ccccc1 (stereo not drawn) [Compound 24, 3-(2-(3,5-dichlorophenylamino)-2-oxo-1-phenylethylthio)isoquinoline 2-oxide]",inhibition at 30 µM ([1]; at 30 μM): 25%
3.6,"O=C(Nc1cc(Cl)cc(Cl)c1)C(Sc1cccc[n+]1[O-])c1ccccc1 (stereo not drawn) [Compound 16, 2-(2-(3,5-dichlorophenylamino)-2-oxo-1-phenylethylthio)pyridine 1-oxide]",Activation of insulin signaling [3]: activated insulin signaling; IC50 [4]: 66 µM; IC50 [2]: 20 µM
3.2,"Cc1cc(C)nc(NS(=O)(=O)c2ccc(NC(=O)NC(=O)c3cccc(Cl)c3Cl)cc2)n1 [Compound 9, 2,3-dichloro-N-(4-(N-(4,6-dimethylpyrimidin-2-yl)sulfamoyl)phenylcarbamoyl) benzamide]",IC50 [2]: 39 µM
20,"COc1ccc(NC(=O)C(Sc2cccc[n+]2[O-])c2ccccc2)cc1Cl (stereo not drawn) [Compound 17, 2-(2-(3-chloro-4-methoxyphenylamino)-2-oxo-1-phenylethylthio)pyridine 1-oxide]",–
30,"Cc1cc(C)nc(NS(=O)(=O)c2ccc(NC(=O)NC(=O)c3ccc(Cl)c(Cl)c3)cc2)n1 [Compound 10, 3,4-dichloro-N-(4-(N-(4,6-dimethylpyrimidin-2-yl)sulfamoyl)phenyl-carbamoyl)benzamide]",–
15,"O=C(Nc1cc(Cl)cc(Cl)c1)C(Sc1cccc[n+]1[O-])c1ccccc1Cl (stereo not drawn) [Compound 21, 2-(1-(2-chlorophenyl)-2-(3,5-dichlorophenylamino)-2-oxoethylthio)pyridine 1-oxide]",–
30,"Cc1cc(C)nc(NS(=O)(=O)c2ccc(NC(=O)NC(=O)c3ccccc3Cl)cc2)n1 [Compound 5, 2-chloro-N-(4-(N-(4,6-dimethylpyrimidin-2-yl)sulfamoyl)phenylcarbamoyl) benzamide]",–
2.3,"Cc1cc(C)nc(N(C)S(=O)(=O)c2ccc(NC(=O)NC(=O)c3ccc(Cl)cc3Cl)cc2)n1 [Compound 12, 2,4-dichloro-N-(4-(N-(4,6-dimethylpyrimidin-2-yl)-N-methylsulfamoyl)phenylcarbamoyl) benzamide]",IC50 [2]: 11 µM
13,"O=C(Nc1cc(C(F)(F)F)cc(C(F)(F)F)c1)C(Sc1cccc[n+]1[O-])c1ccccc1 (stereo not drawn) [Compound 20, 2-(2-(3,5-bis(trifluoromethyl)phenylamino)-2-oxo-1-phenylethylthio)pyridine 1-oxide]",–
–,"CCN(CC)CCN(C(=O)Nc1ccc(S(=O)(=O)Nc2nc(C)cc(C)n2)cc1)C(=O)c1ccc(Cl)cc1Cl [Compound 29, 2,4-dichloro-N-(2-(diethylamino)ethyl)-N-((4-(N-(4,6-dimethylpyrimidin-2-yl)sulfamoyl)phenyl)carbamoyl)benzamide]","Activity (PC-TP), result in words [1]: High fluoroescense"
–,"COc1ccc(C(Sc2cccc[n+]2[O-])C(=O)Nc2cc(Cl)cc(Cl)c2)cc1 (stereo not drawn) [Compound 25, 2-(2-(3,5-dichlorophenylamino)-1-(4-methoxyphenyl)-2-oxoethylthio)pyridine 1-oxide]",inhibition at 50 µM [1]: 30%
> 100,"O=C(Nc1cc(C(F)(F)F)ccc1Cl)C(Sc1cccc[n+]1[O-])c1ccccc1 (stereo not drawn) [Compound 31, 2-(2-(2-chloro-5-(trifluoromethyl)phenylamino)-2-oxo-1-phenylethylthio)pyridine 1-oxide]",–
4.1,"COc1ccccc1C(Sc1cccc[n+]1[O-])C(=O)Nc1cc(Cl)cc(Cl)c1 (stereo not drawn) [Compound 22, 2-(2-(3,5-dichlorophenylamino)-1-(2-methoxyphenyl)-2-oxoethylthio)pyridine 1-oxide]",–
3.2,"Cc1cc(C)nc(NS(=O)(=O)c2ccc(NC(=S)NC(=O)c3ccc(Cl)cc3Cl)cc2)n1 [Compound 1, 2,4-dichloro-N-(4-(N-(4,6-dimethyl-pyrimidin-2-yl)sulfamoyl)phenylcarbamothioyl) benzamide]",–
–,"Cc1cc(C)nc(NS(=O)(=O)c2ccc(NC(=S)NC(=O)c3ccccc3)cc2)n1 [Compound 3, N-(4-(N-(4,6-dimethylpyrimidin-2-yl)sulfamoyl)phenylcarbamothioyl) benzamide]",inhibition at 100 µM [1]: 45%
–,"O=C(Nc1cc(Cl)cc(Cl)c1)C(Sc1cccc[n+]1[O-])c1ccc2ccccc2c1 (stereo not drawn) [Compound 26, 2-(2-(3,5-dichlorophenylamino)-1-(naphthalen-2-yl)-2-oxoethylthio)pyridine 1-oxide]",inhibition at 50 µM [1]: 20%
–,"Cc1cc(C)nc(NS(=O)(=O)c2ccc(NC(=S)NC(=O)c3ccc(F)cc3)cc2)n1 [Compound 2, N-(4-(N-(4,6-dimethylpyrimidin-2-yl)sulfamoyl)phenylcarbamothioyl)-4-fluorobenzamide]",inhibition at 100 µM [1]: 55%
